Patent publication US10844013B2, “Phenyl amino piperidine mTORC inhibitors and uses thereof” (Navitor Pharmaceuticals, Inc., priority 2016, dated 2020)
Structures can show the parent of a compound that is named as a salt.

Assays:
[1] = system: pAKT (p-Akt 1/2/3 (Ser473)) in MCF-7 cells; assay: AlphaLISA Ultra pAKT assay; type: cell-based; conditions: Homo sapiens, MCF7, 2 hours compound incubation
Summary of the method: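 MCF-7 cells seeded 20-24 h, medium refreshed for 2 h, then treated with compounds for 2 h at 0.5% final DMSO. Lysates frozen at −80 °C, then pAKT detected by AlphaLISA with acceptor and donor beads, 2 h each.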

[2] = system: pS6K1 (p-p70 S6 Kinase (Thr389)) in MCF-7 cells; assay: AlphaLISA Ultra pS6K1 assay; type: cell-based; conditions: Homo sapiens, MCF7, 2 h, 2 hours compound incubation
Summary of the method: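 MCF-7 cells seeded 20–24 h, medium refreshed 2 h, then treated 2 h with compound (0.5% DMSO final). Lysates probed for Thr389-phosphorylated p70 S6K by AlphaLISA Ultra, 2 h acceptor then 2 h donor bead incubation, read on a multimode reader.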

IC50 [1] [nM]	IC50 [2] [nM]	Compound
> 10000	1000 to 3000	Cc1cc(C)c(C(=O)N2CCN(c3ccccc3S(N)(=O)=O)CC2)cc1NC1C2CN(c3ccccc3C#N)CC21 (stereo not drawn) [I-132, 2-(4-(5-(3-(2-Cyanophenyl)-3-azabicyclo[3.1.0]hexan-6-ylamino)-2,4-dimethylbenzoyl)piperazin-1-yl)benzenesulfonamide]
> 10000	10 to 1000	Cc1cc(C)c(C(=O)N2CCN(c3ccccc3)C(CN)C2)c(C)c1NC1CCN(c2ccccc2C#N)CC1 (stereo not drawn) [I-135, 2-[4-({3-[3-(Aminomethyl)-4-phenylpiperazine-1-carbonyl]-2,4,6-trimethylphenyl}amino)piperidin-1-yl]benzonitrile; bis(formic acid) salt]
> 10000	10 to 1000	Cc1cc(C)c(C(=O)N2CC(=O)N(c3ccc(F)c(F)c3)[C@H](CO)C2)c(C)c1NC1CCN(c2ccccc2C#N)CC1 [I-136, 2-[4-({3-[(3S)-4-(3,4-difluoro-phenyl)-3-(hydroxy-methyl)-5-oxopiperazine-1-carbonyl]-2,4,6-trimethyl-phenyl}amino)piperidin-1-yl]benzonitrile]
> 10000	10 to 1000	Cc1cc(C)c(C(=O)N2CCN(c3ccccc3)[C@H](CN)C2)c(C)c1NC1CCN(c2ccccc2C#N)CC1 [I-137, 2-[4-({3-[(3R)-3-(Aminomethyl)-4-phenylpiperazine-1-carbonyl]-2,4,6-trimethylphenyl}amino)piperidin-1-yl]benzonitrile]
> 10000	10 to 1000	Cc1cc(C)c(C(=O)N2CCN(c3ccccc3)C(C(N)=O)C2)c(C)c1NC1CCN(c2ccccc2C#N)CC1 (stereo not drawn) [I-139, 4-(3-{[1-(2-cyanophenyl)piperidin-4-yl]amino}-2,4,6-trimethyl-benzoyl)-1-phenyl-piperazine-2-carboxamide]
> 10000	10 to 1000	Cc1cc(C)c(C(=O)N2CCN(c3cccnn3)[C@H](CO)C2)c(C)c1NC1CCN(c2ccccc2C#N)CC1 [I-140, 2-[4-({3-[(3S)-3-(hydroxy-methyl)-4-(pyridazin-3-yl)piperazine-1-carbonyl]-2,4,6-trimethyl-phenyl}amino)piperidin-1-yl] benzonitrile]
> 10000	10 to 1000	Cc1cc(C)c(C(=O)N2CCN(c3ccccc3)C(C(N)=O)C2)c(C)c1NC1CCN(c2ccc(F)cc2C#N)CC1 (stereo not drawn) [I-142, 4-(3-{[1-(2-cyano-4-fluorophenyl)piperidin-4-yl]amino}-2,4,6-trimethyl-benzoyl)-1-phenyl-piperazine-2-carboxamide]
> 10000	10 to 1000	Cc1cc(C)c(C(=O)N2CCN(c3ccccn3)C(=O)C2)c(C)c1NC1CCN(c2ccc(F)cc2C#N)CC1 [I-143, 5-fluoro-2-[4-({2,4,6-trimethyl-3-[3-oxo-4-(pyridin-2-yl)piperazine-1-carbonyl]phenyl}amino)piperidin-1-yl] benzonitrile]
> 10000	10 to 1000	Cc1cc(C)c(C(=O)N2CCN(c3ccc(F)cc3)C(C(N)=O)C2)c(C)c1NC1CCN(c2ccc(F)cc2C#N)CC1 (stereo not drawn) [I-144, 4-(3-{[1-(2-cyano-4-fluorophenyl)piperidin-4-yl]amino}-2,4,6-trimethyl-benzoyl)-1-(4-fluorophenyl) piperazine-2-carboxamide]
> 10000	10 to 1000	Cc1cc(C)c(C(=O)N2CCN(c3ccccc3)[C@H](CO)C2)c(C)c1NC1CCN(c2ccc(F)cn2)CC1 [I-145, [(2S)-4-(3-{[1-(5-fluoropyridin-2-yl)piperidin-4-yl]amino}-2,4,6-trimethyl-benzoyl)-1-phenyl-piperazin-2-yl]MeOH]
10 to 1000	10 to 1000	Cc1cc(C)c(C(=O)N2CCN(c3ccc(F)cn3)[C@H](CO)C2)c(C)c1NC1CCN(c2ccc(F)cn2)CC1 [I-146, [(3S)-4-(5-Fluoro-2-pyridyl)-3-(hydroxymethyl)piperazin-1-yl]-[3-[[1-(5-fluoro-2-pyridyl)-4-piperidyl]amino]-2,4,6-trimethyl-phenyl]methanone]
> 10000	10 to 1000	Cc1cc(C)c(C(=O)N2CCN(c3ccccn3)[C@H](CO)C2)c(C)c1NC1CCN(c2ccc(F)cn2)CC1 [I-147, [(2S)-4-(3-{[1-(5-Fluoropyridin-2-yl)piperidin-4-yl]amino}-2,4,6-trimethylbenzoyl)-1-(pyridin-2-yl)piperazin-2-yl]methanol]
> 10000	10 to 1000	Cc1cc(C)c(C(=O)N2CCN(c3ccc(F)cn3)[C@H](CO)C2)c(C)c1NC1CCN(c2cnccn2)CC1 [I-148, [(3S)-4-(5-Fluoro-2-pyridyl)-3-(hydroxymethyl)piperazin-1-yl]-[2,4,6-trimethyl-3-[(1-pyrazin-2-yl-4-piperidyl)amino]phenyl]methanone]
> 10000	10 to 1000	Cc1cc(C)c(C(=O)N2CCN(c3ccccn3)[C@H](CO)C2)c(C)c1NC1CCN(c2cnccn2)CC1 [I-149, [(2S)-1-(pyridin-2-yl)-4-(2,4,6-trimethyl-3-{[1-(pyrazin-2-yl)piperidin-4-yl]amino}benzoyl)piperazin-2-yl]MeOH]
> 10000	10 to 1000	Cc1cc(C)c(C(=O)N2CCN(c3ccccc3)[C@H](C(N)=O)C2)c(C)c1NC1CCN(c2cnccn2)CC1 [I-150, (2S)-1-phenyl-4-(2,4,6-trimethyl-3-{[1-(pyrazin-2-yl)piperidin-4-yl]amino}benzoyl) piperazine-2-carboxamide]
> 10000	10 to 1000	Cc1cc(C)c(C(=O)N2CCN(c3ccc(F)cn3)[C@H](CO)C2)c(C)c1NC1CCN(c2ncccn2)CC1 [I-151, [(2S)-1-(5-Fluoropyridin-2-yl)-4-(2,4,6-trimethyl-3-{[1-(pyrimidin-2-yl)piperidin-4-yl]amino}benzoyl)piperazin-2-yl]methanol]
> 10000	> 10000	Cc1cc(C)c(C(=O)N2CCN(c3ccccc3)[C@@H](C(N)=O)C2)c(C)c1NC1CCN(c2cnccn2)CC1 [I-152, (2R)-1-phenyl-4-(2,4,6-trimethyl-3-{[1-(pyrazin-2-yl)piperidin-4-yl]amino}benzoyl) piperazine-2-carboxamide]
> 10000	10 to 1000	Cc1nc(C)c(C(=O)N2CCN(c3ccccc3)[C@H](CO)C2)c(C)c1NC1CCN(c2c(F)cccc2C#N)CC1 [I-153, 3-fluoro-2-[4-({5-[(3S)-3-(hydroxy-methyl)-4-phenyl-piperazine-1-carbonyl]-2,4,6-trimethyl-pyridin-3-yl}amino)piperidin-1-yl] benzonitrile]
> 10000	1000 to 3000	Cc1nc(C)c(C(=O)N2CCN(c3ccccc3)[C@H](CO)C2)c(C)c1NC1CCN(c2ccc(F)cc2C#N)CC1 [I-154, 5-fluoro-2-[4-({5-[(3S)-3-(hydroxy-methyl)-4-phenyl-piperazine-1-carbonyl]-2,4,6-trimethyl-pyridin-3-yl}amino)piperidin-1-yl] benzonitrile]
> 10000	1000 to 3000	Cc1nc(C)c(C(=O)N2CCN(c3ccccc3)[C@H](CO)C2)c(C)c1NC1CCN(c2ccccn2)CC1 [I-155, [(2S)-1-phenyl-4-(2,4,6-trimethyl-5-{[1-(pyridin-2-yl)piperidin-4-yl]amino}pyridine-3-carbonyl)piperazin-2-yl]MeOH]
> 10000	10 to 1000	Cc1cc(C)c(C(=O)N2CCN(c3ccccn3)[C@H](CO)C2)c(C)c1NC1CCN(c2ccccn2)CC1 [I-156, [(2S)-1-(pyridin-2-yl)-4-(2,4,6-trimethyl-3-{[1-(pyridin-2-yl)piperidin-4-yl]amino}benzoyl)piperazin-2-yl]MeOH]
> 10000	10 to 1000	Cc1cc(C)c(C(=O)N2CCN(c3cccnn3)[C@H](CO)C2)c(C)c1NC1CCN(c2ccccn2)CC1 [I-157, [(2S)-1-(pyridazin-3-yl)-4-(2,4,6-trimethyl-3-{[1-(pyridin-2-yl)piperidin-4-yl]amino}benzoyl)piperazin-2-yl]MeOH]
> 10000	10 to 1000	Cc1cc(C)c(C(=O)N2CCN(c3ccccc3)[C@H](CO)C2)c(C)c1NC1CCN(c2cccnn2)CC1 [I-158, [(2S)-1-phenyl-4-(2,4,6-trimethyl-3-{[1-(pyridazin-3-yl)piperidin-4-yl]amino}benzoyl)piperazin-2-yl]MeOH]
> 10000	1000 to 3000	Cc1cc(C)c(C(=O)N2CCN(c3cccnn3)[C@H](CO)C2)c(C)c1NC1CCN(c2cccnn2)CC1 [I-160, [(2S)-1-(pyridazin-3-yl)-4-(2,4,6-trimethyl-3-{[1-(pyridazin-3-yl)piperidin-4-yl]amino}benzoyl)piperazin-2-yl]MeOH]
> 10000	10 to 1000	Cc1cc(C)c(C(=O)N2CCN(c3ccc(F)cn3)[C@H](CO)C2)c(C)c1NC1CCN(c2cccnn2)CC1 [I-161, [(2S)-1-(5-fluoropyridin-2-yl)-4-(2,4,6-trimethyl-3-{[1-(pyridazin-3-yl)piperidin-4-yl]amino}benzoyl)piperazin-2-yl]MeOH]
> 10000	10 to 1000	Cc1cc(C)c(C(=O)N2CCN(c3ccc(F)cc3)C(C(N)=O)C2)c(C)c1NC1CCN(c2cccnn2)CC1 (stereo not drawn) [I-162, 1-(4-fluorophenyl)-4-(2,4,6-trimethyl-3-{[1-(pyridazin-3-yl)piperidin-4-yl]amino}benzoyl) piperazine-2-carboxamide]
> 10000	10 to 1000	Cc1cc(C)c(C(=O)N2CCN(c3ccccc3)[C@H](C(N)=O)C2)c(C)c1NC1CCN(c2cccnn2)CC1 [I-164, (2S)-1-Phenyl-4-(2,4,6-trimethyl-3-{[1-(pyridazin-3-yl)piperidin-4-yl]amino}benzoyl)piperazine-2-carboxamide]
